# Patent US9999656B2, “Treatment of short bowel syndrome patients with colon-in-continuity” (Shire-NPS Pharmaceuticals, Inc., priority 2004, dated 2018)
# Key:
# [1] = Body weight following teduglutide treatment; assay type: in vivo, human; settings: not significant (p=0.120)
# [2] = Half-life / AUC (pharmacokinetics); assay type: in vivo
# Method: This greater effect could be related to differences in dose and half-life of GLP-2 and teduglutide, respectively. In the pilot study with native GLP-2, 400 μg was given twice daily (corresponding to 0.013±0.002 mg/kg/day, a range of 0.011-0.017 mg/kg/day). The teduglutide doses in the current study were 3-10 times higher, ranging from 0.03 to 0.15 mg/kg/day. […] If area under the curve (AUC) is critical for the wet weight absorption effect, the AUC during teduglutide treatment may well be 200 times greater than the AUC when using native GLP-2. In this study, effects of teduglutide on energy and macronutrient absorption were minor compared to effects on wet weight absorption. […] Nonetheless, the effect of teduglutide on absolute energy absorption is 1.5 to 4-fold higher than with native GLP-2 (441±634 kJ/day ([105±151 kcal/day] p=0.09) at the given doses and treatment periods. Thus, in contrast to H2-receptor antagonists, proton-pump inhibitors and octreotide that only affect wet weight absorption, native GLP-2 and teduglutide seem to affect both intestinal wet weight and energy absorption, with an additional positive effect on wet weight absorption in patients already treated with these non-GLP-2 agonists.
# [3] = test system: patients with short bowel syndrome (SBS); assay: Safety monitoring (adverse events, laboratory, vital signs, ECGs, antibodies)
# Excerpt: During each inpatient period, patients underwent 72-hour nutrient balance and D-Xylose absorption studies, and a proximal or distal endoscopy to ascertain the condition of the intestinal mucosa and obtain biopsy samples. In jejunostomy patients, biopsies were obtained through the jejunostomy stoma or by upper gastrointestinal endoscopy. In patients with colon-in-continuity, colo-rectal biopsies were obtained. Teduglutide treatment began on Day 1 (immediately after the baseline period) and continued once-daily for 21 days. […] Patients were monitored for safety (adverse events, physical exams, vital signs, ECGs, laboratory results, and injection site examinations) during the inpatient periods and during outpatient visits on days 7 and 14.
structure (smiles),measurement,setting,value
"CC[C@H](C)[C@H](NC(=O)[C@H](Cc1ccccc1)NC(=O)[C@H](CC(=O)O)NC(=O)[C@H](CCCNC(=N)N)NC(=O)[C@H](C)NC(=O)[C@H](C)NC(=O)[C@H](CC(C)C)NC(=O)[C@H](CC(N)=O)NC(=O)[C@H](CC(=O)O)NC(=O)[C@H](CC(C)C)NC(=O)[C@@H](NC(=O)[C@@H](NC(=O)[C@H](CC(N)=O)NC(=O)[C@H](CCSC)NC(=O)[C@H](CCC(=O)O)NC(=O)[C@H](CC(=O)O)NC(=O)[C@H](CO)NC(=O)[C@H](Cc1ccccc1)NC(=O)[C@H](CO)NC(=O)CNC(=O)[C@H](CC(=O)O)NC(=O)CNC(=O)[C@@H](N)Cc1c[nH]cn1)[C@@H](C)O)[C@@H](C)CC)C(=O)N[C@@H](CC(N)=O)C(=O)N[C@@H](Cc1c[nH]c2ccccc12)C(=O)N[C@@H](CC(C)C)C(=O)N[C@H](C(=O)N[C@@H](CCC(N)=O)C(=O)N[C@H](C(=O)N[C@@H](CCCCN)C(=O)N[C@H](C(=O)N[C@H](C(=O)N[C@@H](CC(=O)O)C(=O)O)[C@@H](C)O)[C@@H](C)CC)[C@@H](C)O)[C@@H](C)CC [teduglutide, [Gly2]hGLP-2]",increase in body weight following teduglutide treatment,[1],0.9 ± 2.1 kg
same,AUC during teduglutide treatment relative to AUC using native GLP-2,"[2]; 'may well be', estimate",~200 times
same,half-life,"[2]; human, plasma, teduglutide, approximately",0.9 to 2.3 h
same,antibodies to teduglutide,"[3]; SBS patients, 21 days dosing",No antibodies to teduglutide were detected
same,deaths and withdrawals due to adverse events,[3]; all patients,no deaths and no withdrawals due to adverse events
same,injection site reactions,[3]; in vivo,Three patients had minor injection site reactions
same,laboratory values,[3]; in vivo,No clinically significant abnormal laboratory values
same,most common AEs,[3]; in vivo,"edema of the lower limbs, and localized swelling of the jejunostomy nipple"
same,"relation of serious AEs (catheter-related infection or complication, two patients) to drug",[3]; in vivo,None of these were judged to be related to teduglutide
same,vital signs or ECGs,[3]; in vivo,No safety concerns were raised
